Measured values taken from the supplement of paper PMC10307832.

Assays:
Experiment in all cases: relative viability (nuclei count vs DMSO), 5 days (fraction); higher = more cells survive
BX 795 + Phenformin = compound: O=C(NCCCNc1nc(Nc2cccc(NC(=O)N3CCCC3)c2)ncc1I)c1cccs1 [BX 795] + N=C(N)NC(=N)NCCc1ccccc1 [Phenformin] (partner 250 µM)
Procedure, shortened: (§1)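 Each reported value is a median over duplicate plates. It expresses relative viability: treated-well nuclei count divided by vehicle-well nuclei count. Lung cancer cell lines in 1536-well plates were dosed by pin tool a day after seeding, alone with one drug or with a fixed anchor-drug dose plus five library-drug doses (not always all listed) in √10 steps, and nuclei were counted after 5 days.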

BX 795 + Pictilisib = compound: O=C(NCCCNc1nc(Nc2cccc(NC(=O)N3CCCC3)c2)ncc1I)c1cccs1 [BX 795] + CS(=O)(=O)N1CCN(Cc2cc3nc(-c4cccc5[nH]ncc45)nc(N4CCOCC4)c3s2)CC1 [Pictilisib] (partner 1 µM)
Procedure, shortened: as §1

BX 795 + Crizotinib = compound: O=C(NCCCNc1nc(Nc2cccc(NC(=O)N3CCCC3)c2)ncc1I)c1cccs1 [BX 795] + C[C@@H](Oc1cc(-c2cnn(C3CCNCC3)c2)cnc1N)c1c(Cl)ccc(F)c1Cl [Crizotinib] (partner 1 µM)
Procedure, shortened: as §1

BX 795 + Vorinostat = compound: O=C(NCCCNc1nc(Nc2cccc(NC(=O)N3CCCC3)c2)ncc1I)c1cccs1 [BX 795] + O=C(CCCCCCC(=O)Nc1ccccc1)NO [Vorinostat] (partner 1 µM)
Procedure, shortened: as §1

BX 795 + Dasatinib = compound: O=C(NCCCNc1nc(Nc2cccc(NC(=O)N3CCCC3)c2)ncc1I)c1cccs1 [BX 795] + Cc1nc(Nc2ncc(C(=O)Nc3c(C)cccc3Cl)s2)cc(N2CCN(CCO)CC2)n1 [Dasatinib] (partner 0.075 µM)
Procedure, shortened: as §1

| Cell Line | relative viability (BX 795 + Phenformin; first compound 0.04 µM) | relative viability (BX 795 + Phenformin; first compound 0.1265 µM) | relative viability (BX 795 + Phenformin; first compound 0.4 µM) | relative viability (BX 795 + Phenformin; first compound 1.265 µM) | relative viability (BX 795 + Pictilisib; first compound 0.04 µM) | relative viability (BX 795 + Pictilisib; first compound 0.1265 µM) | relative viability (BX 795 + Pictilisib; first compound 0.4 µM) | relative viability (BX 795 + Pictilisib; first compound 1.265 µM) | relative viability (BX 795 + Crizotinib; first compound 0.04 µM) | relative viability (BX 795 + Crizotinib; first compound 0.1265 µM) | relative viability (BX 795 + Crizotinib; first compound 0.4 µM) | relative viability (BX 795 + Crizotinib; first compound 1.265 µM) | relative viability (BX 795 + Vorinostat; first compound 0.04 µM) | relative viability (BX 795 + Vorinostat; first compound 0.1265 µM) | relative viability (BX 795 + Vorinostat; first compound 0.4 µM) | relative viability (BX 795 + Vorinostat; first compound 1.265 µM) | relative viability (BX 795 + Dasatinib; first compound 0.04 µM) | relative viability (BX 795 + Dasatinib; first compound 0.1265 µM) | relative viability (BX 795 + Dasatinib; first compound 0.4 µM) | relative viability (BX 795 + Dasatinib; first compound 1.265 µM) |
| --- | --- | --- | --- | --- | --- | --- | --- | --- | --- | --- | --- | --- | --- | --- | --- | --- | --- | --- | --- | --- |
| NCI-H2126 | 0.534 | 0.542 | 0.605 | 0.498 | 0.479 | 0.462 | 0.566 | 0.448 | 1.04 | 0.984 | 1.09 | 0.945 | 0.805 | 0.799 | 0.913 | 0.73 | 0.649 | 0.658 | 0.507 | 0.599 |
| NCI-H2170 | 0.46 | 0.383 | 0.446 | 0.413 | 0.3 | 0.283 | 0.283 | 0.249 | 1.17 | 1.27 | 1.07 | 1.13 | 0.942 | 0.985 | 0.824 | 0.817 | 0.594 | 0.517 | 0.476 | 0.64 |
| NCI-H2228 | 0.325 | 0.469 | 0.272 | 0.15 | 0.517 | 0.439 | 0.377 | 0.239 | 0.635 | 0.5 | 0.572 | 0.288 | 0.761 | 0.898 | 0.63 | 0.556 | 0.568 | 0.594 | 0.388 | 0.32 |
| NCI-H2347 | 0.475 | 0.466 | 0.555 | 0.391 | 0.818 | 0.492 | 0.851 | 0.722 | 0.8 | 0.616 | 0.801 | 0.545 | 0.5 | 0.633 | 0.717 | 0.505 | 0.385 | 0.325 | 0.293 | 0.283 |
| NCI-H2405 | 0.438 | 0.355 | 0.33 | 0.262 | 0.373 | 0.364 | 0.295 | 0.319 | 0.806 | 0.842 | 0.635 | 0.794 | 1.01 | 0.809 | 0.951 | 0.821 | 0.185 | 0.193 | 0.191 | 0.187 |
| NCI-H3122 | 0.409 | 0.38 | 0.381 | 0.348 | 0.588 | 0.656 | 0.588 | 0.595 | 0.293 | 0.266 | 0.282 | 0.296 | 0.715 | 1.03 | 1.11 | 0.679 | 0.791 | 1 | 0.8 | 0.852 |
| PC-3 [JPC-3] | 0.484 | 0.439 | 0.492 | 0.483 | 0.753 | 0.707 | 0.685 | 0.827 | 1.04 | 0.993 | 1.06 | 0.946 | 0.766 |  | 0.929 | 0.809 | 1.02 | 1.04 | 0.979 | 0.975 |
| PC-14 | 0.533 | 0.488 | 0.633 | 0.289 | 0.654 | 0.758 | 0.564 | 0.439 | 0.879 | 0.919 | 0.851 | 0.602 | 0.819 | 0.778 | 0.424 | 0.433 | 0.278 | 0.249 | 0.228 | 0.177 |
| RERF-LC-KJ | 0.473 | 0.424 | 0.452 | 0.282 | 0.488 | 0.574 | 0.536 | 0.446 | 0.86 | 0.767 | 0.699 | 0.669 |  | 0.667 | 0.59 | 0.541 | 0.873 | 0.899 | 0.707 | 0.648 |
| SK-LU-1 | 0.495 | 0.608 |  | 0.316 | 0.543 | 0.691 | 0.416 | 0.511 | 0.96 | 0.92 | 0.459 | 0.498 | 0.674 | 0.764 | 0.595 | 0.593 | 0.142 | 0.181 |  | 0.135 |
| SK-MES-1 | 0.691 | 0.628 | 0.592 | 0.419 | 0.372 | 0.32 | 0.322 | 0.382 | 1.13 | 0.939 | 0.836 | 0.78 | 1.1 | 1.11 | 0.545 | 0.748 | 0.416 | 0.453 | 0.164 | 0.223 |
| SW 1573 | 0.396 | 0.351 | 0.34 | 0.18 | 0.551 | 0.463 | 0.608 | 0.381 | 0.832 | 0.887 | 0.584 | 0.667 | 0.862 | 0.875 | 0.558 | 0.276 | 0.512 | 0.456 | 0.452 | 0.161 |
| UMC-11 | 0.291 | 0.322 | 0.253 | 0.19 | 0.726 | 0.86 | 0.683 | 0.534 | 0.608 | 0.584 | 0.322 | 0.0915 | 0.422 | 0.308 | 0.354 | 0.348 | 0.412 | 0.407 | 0.291 | 0.169 |
